One series deals with Chymotrypsin. As to the kind of experiment: Inhibition of enzymatic degradation of a model GLP-1 (FRET substrate) by chymotrypsin. In kind it is biochemical. The note with it: for EC50: read-out: EC50 Chymotrypsin (0.001 mg/ml), 0.001 mg/ml chymotrypsin, 37° C., ± standard error if at least 3 measurements. Summed up:
(§1)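 MCA/DNP-labelled model GLP-1 FRET substrate (10 μl of 100 μM stock) in Dulbecco's PBS at 37° C with varying acylated peptide; fluorescence (ex 320/em 405 nm) read every minute for ≥30 min. Initial slopes from linear regression, duplicates averaged; EC50 by sigmoidal logistic fit of slope vs concentration.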

A further series concerns Trypsin. Nature of the series: Inhibition of enzymatic degradation of a model GLP-1 (FRET substrate) by trypsin. Format: biochemical. The note with it: for EC50: read-out: EC50 Trypsin (0.001 mg/ml), 0.001 mg/ml trypsin, 37° C. In a few lines: as §1
The nature of series [1]: Hydrophobicity: retention time during reverse phase HPLC. Format: physicochemical. The note with it: Acquity CSH C18; pH 7.2 buffer/CH3CN gradient; 40° C. From the text:
The retention time (RT) during reverse phase HPLC was taken as a measure of hydrophobicity of an N-terminally modified peptide or oligopeptide of the invention, where the connection is: The longer the RT, the more hydrophobic N-terminally modified peptide or oligopeptide. The following running conditions were applied during HPLC analysis:
Buffer B: 70% (v/v) aq. CH3CN

Where [2] appears, read: compound 0.1 mM, buffer containing 8% DMSO.

Starred links: 1 amine or outer side, 2 acyl side, 3 side chain; linkers in the order of their positions; H or OH if unused. Non-standard residues stand in square brackets, D forms with d. *: point of attachment. γGlu = O=C(O)[C@H](CCC(=O)[*:2])N[*:1]; C14 diacid = O=C(O)CCCCCCCCCCCCC(=O)*; Lauroyl = CCCCCCCCCCCC(=O)*

From patent US20150038435A1, “N-TERMINALLY MODIFIED OLIGOPEPTIDES AND USES THEREOF” (Novo Nordisk A/S, priority 2012, published 2015) come the findings set out here.

For “N-dodecanoyl-Trp-Pro-Tyr-OH [Example 109]”, the “Slope of the initial increase in fluorescence obtained during incubation with 0.001 mg/ml Chymotrypsin” value with Chymotrypsin (setting [2]) was determined as 0.05. In the series with Trypsin (setting [2]), the “Slope of the initial increase in fluorescence obtained during incubation with 0.001 mg/ml Trypsin” value stood at 0.73. Moreover, in series [1], the “RT (retention time during reverse phase HPLC as a measure of hydrophobicity)” value (“RT” for short) is listed as 8.24 min.

Regarding “N-dodecanoyl-Tyr-Pro-Tyr-OH [Example 110]”, in the series with Chymotrypsin (setting [2]), the “Slope of the initial increase in fluorescence obtained during incubation with 0.001 mg/ml Chymotrypsin” value is 0.35. Also, the “Slope of the initial increase in fluorescence obtained during incubation with 0.001 mg/ml Trypsin” value with Trypsin (setting [2]) is 1.77. In addition, the “RT” value in series [1] came out at 6.24 min.

Consider “N-dodecanoyl-Val-Ala-Ala-Pro-Tyr-OH [Example 54]”, for which the “Slope of the initial increase in fluorescence obtained during incubation with 0.001 mg/ml Chymotrypsin” value in the series on Chymotrypsin (setting [2]) is 0.95. In addition, the “Slope of the initial increase in fluorescence obtained during incubation with 0.001 mg/ml Trypsin” value in the series on Trypsin (setting [2]) is on record as 1.95. In addition, in series [1], the “RT” value is listed as 7.08 min.

Regarding “N-dodecanoyl-Val-Ala-Pro-Tyr-OH (Lauroyl-VAPY-OH; SMILES CCCCCCCCCCCC(=O)N[C@H](C(=O)N[C@@H](C)C(=O)N1CCC[C@H]1C(=O)N[C@@H](Cc1ccc(O)cc1)C(=O)O)C(C)C) [Example 55]”, in the series with Chymotrypsin (setting [2]), the “Slope of the initial increase in fluorescence obtained during incubation with 0.001 mg/ml Chymotrypsin” value is listed as 0.42. Moreover, the “Slope of the initial increase in fluorescence obtained during incubation with 0.001 mg/ml Trypsin” value in the series with Trypsin (setting [2]) is listed as 1.88. The “RT” value in series [1] stood at 7.01 min.

For “N-dodecanoyl-Val-Pro-Tyr-OH [Example 111]”, the “Slope of the initial increase in fluorescence obtained during incubation with 0.001 mg/ml Chymotrypsin” value in the series with Chymotrypsin (setting [2]) is listed as 0.31. In addition, the “Slope of the initial increase in fluorescence obtained during incubation with 0.001 mg/ml Trypsin” value in the series with Trypsin (setting [2]) turned out to be 1.93. Further, in series [1], the “RT” value is 7 min.

Turning to “N-dodecanoyl-βAla-Ala-Pro-Phe-OH [Example 8]”, in the series on Chymotrypsin (compound 1 mM), the “Slope of the initial increase in fluorescence obtained during incubation with 0.001 mg/ml Chymotrypsin” value was found to be 0.03. In the series on Trypsin (compound 1 mM), the “Slope of the initial increase in fluorescence obtained during incubation with 0.001 mg/ml Trypsin” value was 0.70. Besides, the “RT” value in series [1] is given as 6.13 min.

Consider “N-dodecanoyl-βAla-βAla-Pro-Phe-OH [Example 10]”, for which, in the series on Chymotrypsin (compound 1 mM), the “Slope of the initial increase in fluorescence obtained during incubation with 0.001 mg/ml Chymotrypsin” value was 0.05. The “Slope of the initial increase in fluorescence obtained during incubation with 0.001 mg/ml Trypsin” value with Trypsin (compound 1 mM) came to 3.29. Further, the “RT” value in series [1] is 6.04 min.

Consider “N-dodecanoyl-γGlu-Ala-Ala-Pro-Phe-OH [Example 12]”, for which, in the series with Chymotrypsin (compound 1 mM), the “Slope of the initial increase in fluorescence obtained during incubation with 0.001 mg/ml Chymotrypsin” value worked out at 0.76. The “Slope of the initial increase in fluorescence obtained during incubation with 0.001 mg/ml Trypsin” value in the series with Trypsin (compound 1 mM) came to 0.30. The “RT” value in series [1] is listed as 4.04 min.

“N-dodecanoyl-γGlu-Ala-Ala-Pro-Tyr-OH [Example 97]”: the “Slope of the initial increase in fluorescence obtained during incubation with 0.001 mg/ml Chymotrypsin” value in the series with Chymotrypsin (setting [2]) is listed as 0.55. In the series on Trypsin (setting [2]), the “Slope of the initial increase in fluorescence obtained during incubation with 0.001 mg/ml Trypsin” value is on record as 1.31. The “RT” value in series [1] was found to be 3.79 min.

For “N-dodecanoyl-γGlu-Ala-Pro-Tyr-OH (Lauroyl-[γGlu]APY-OH; SMILES CCCCCCCCCCCC(=O)N[C@@H](CCC(=O)N[C@@H](C)C(=O)N1CCC[C@H]1C(=O)N[C@@H](Cc1ccc(O)cc1)C(=O)O)C(=O)O) [Example 98]”, the “Slope of the initial increase in fluorescence obtained during incubation with 0.001 mg/ml Chymotrypsin” value with Chymotrypsin (setting [2]) stood at 1.39. The “Slope of the initial increase in fluorescence obtained during incubation with 0.001 mg/ml Trypsin” value in the series with Trypsin (setting [2]) is recorded as 1.53. Moreover, in series [1], the “RT” value is listed as 3.79 min.

On to “N-dodecanoyl-γGlu-OEG-Ala-Ala-Pro-Phe-OH [Example 125]”, for which, in the series with Chymotrypsin (compound 1 mM), the “Slope of the initial increase in fluorescence obtained during incubation with 0.001 mg/ml Chymotrypsin” value was determined as 0.75. Further, in the series with Trypsin (compound 1 mM), the “Slope of the initial increase in fluorescence obtained during incubation with 0.001 mg/ml Trypsin” value came out at 0.38. In addition, the “RT” value in series [1] is given as 3.95 min.

On to “N-dodecanoyl-γGlu-OEG-OEG-Arg-OH [Example 132]”, for which the “Slope of the initial increase in fluorescence obtained during incubation with 0.001 mg/ml Chymotrypsin” value in the series with Chymotrypsin (compound 1 mM) is given as 0.35. In addition, the “Slope of the initial increase in fluorescence obtained during incubation with 0.001 mg/ml Trypsin” value in the series on Trypsin (compound 1 mM) is 0.26. For the same substance, the “RT” value in series [1] is 3.62 min.

For “N-dodecanoyl-γGlu-OEG-OEG-DArg-OH [Example 133]”, the “Slope of the initial increase in fluorescence obtained during incubation with 0.001 mg/ml Chymotrypsin” value in the series on Chymotrypsin (compound 1 mM) was found to be 0.27. Moreover, the “Slope of the initial increase in fluorescence obtained during incubation with 0.001 mg/ml Trypsin” value in the series with Trypsin (compound 1 mM) came out at 0.09. Also, the “RT” value in series [1] is listed as 3.62 min.

With “N-dodecanoyl-γGlu-OEG-Pro-Arg-OH [Example 127]”, the “Slope of the initial increase in fluorescence obtained during incubation with 0.001 mg/ml Chymotrypsin” value in the series on Chymotrypsin (compound 1 mM) is listed as 0.62. In the series with Trypsin (compound 1 mM), the “Slope of the initial increase in fluorescence obtained during incubation with 0.001 mg/ml Trypsin” value is given as 0.72. Also, the “RT” value in series [1] turned out to be 3.67 min.

Turning to “N-dodecanoyl-γGlu-Pro-Tyr-OH [Example 100]”, in the series with Chymotrypsin (setting [2]), the “Slope of the initial increase in fluorescence obtained during incubation with 0.001 mg/ml Chymotrypsin” value is listed as 1.75. In the series with Trypsin (setting [2]), the “Slope of the initial increase in fluorescence obtained during incubation with 0.001 mg/ml Trypsin” value is reported as 1.69. In addition, the “RT” value in series [1] is listed as 3.9 min.

With “N-dodecanoyl-γGlu-γGlu-Ala-Ala-Pro-Tyr-OH [Example 99]”, the “Slope of the initial increase in fluorescence obtained during incubation with 0.001 mg/ml Chymotrypsin” value with Chymotrypsin (setting [2]) worked out at 0.35. In the series with Trypsin (setting [2]), the “Slope of the initial increase in fluorescence obtained during incubation with 0.001 mg/ml Trypsin” value is on record as 1.52. Further, the “RT” value in series [1] was 3.41 min.

As for “N-hexadecanoyl-γGlu-OEG-Ala-Ala-Pro-Phe-OH [Example 134]”, the EC50 was 48 µM in the series with Chymotrypsin and 46 µM in the series with Trypsin. For the same substance, in series [1], the “RT” value was determined as 7 min.

Take “N-tetradecandioyl-Ala-Ala-Pro-Phe-OH ({C14 diacid}-AAPF-OH) [Example 16]”: the “Slope of the initial increase in fluorescence obtained during incubation with 0.001 mg/ml Chymotrypsin” value in the series on Chymotrypsin (compound 1 mM) was 0.14. The “Slope of the initial increase in fluorescence obtained during incubation with 0.001 mg/ml Trypsin” value in the series with Trypsin (compound 1 mM) worked out at 3.23. Besides, in series [1], the “RT” value came to 3.11 min.

As for “N-tetradecanoyl-Ala-Ala-Pro-DPhe-OH [Example 5]”, in the series on Chymotrypsin (compound 1 mM), the “Slope of the initial increase in fluorescence obtained during incubation with 0.001 mg/ml Chymotrypsin” value was found to be 0.09. For the same substance, the EC50 with Chymotrypsin was found to be 105 µM. In addition, the “Slope of the initial increase in fluorescence obtained during incubation with 0.001 mg/ml Trypsin” value in the series on Trypsin (compound 1 mM) is listed as 0.35. Besides, the “RT” value in series [1] is 9.74 min.

Regarding “N-tetradecanoyl-Ala-Ala-Pro-Phe-OH [Example 3]”, the “Slope of the initial increase in fluorescence obtained during incubation with 0.001 mg/ml Chymotrypsin” value in the series with Chymotrypsin (compound 1 mM) was 0.01. The EC50 was 57 ± 2 µM in the series with Chymotrypsin and 74 µM in the series on Trypsin. The “Slope of the initial increase in fluorescence obtained during incubation with 0.001 mg/ml Trypsin” value in the series on Trypsin (compound 1 mM) is 0.37. The “RT” value in series [1] came out at 9.74 min.

Turning to “N-tetradecanoyl-βAla-Ala-Pro-Phe-OH [Example 9]”, the “Slope of the initial increase in fluorescence obtained during incubation with 0.001 mg/ml Chymotrypsin” value in the series on Chymotrypsin (compound 1 mM) was 0.01. Besides, the “Slope of the initial increase in fluorescence obtained during incubation with 0.001 mg/ml Trypsin” value in the series with Trypsin (compound 1 mM) is 0.21. In series [1], the “RT” value worked out at 8.73 min.

For the substance “N-tetradecanoyl-βAla-βAla-Pro-Phe-OH [Example 136]”, the EC50 in the series with Chymotrypsin turned out to be 106 µM; in the series on Trypsin, 13 µM. In addition, in series [1], the “RT” value is recorded as 8.73 min.

“N-tetradecanoyl-βAla-βAla-βAla-Pro-Phe-OH [Example 138]”: the EC50 in the series with Chymotrypsin was determined as 154 µM; with Trypsin, 39 µM. For the same substance, the “RT” value in series [1] is recorded as 8.16 min.
